The melting point is the temperature of the solid-liquid transition.

Molecules are shown by their SMILES.

T1 sequence (O00571 whole entry): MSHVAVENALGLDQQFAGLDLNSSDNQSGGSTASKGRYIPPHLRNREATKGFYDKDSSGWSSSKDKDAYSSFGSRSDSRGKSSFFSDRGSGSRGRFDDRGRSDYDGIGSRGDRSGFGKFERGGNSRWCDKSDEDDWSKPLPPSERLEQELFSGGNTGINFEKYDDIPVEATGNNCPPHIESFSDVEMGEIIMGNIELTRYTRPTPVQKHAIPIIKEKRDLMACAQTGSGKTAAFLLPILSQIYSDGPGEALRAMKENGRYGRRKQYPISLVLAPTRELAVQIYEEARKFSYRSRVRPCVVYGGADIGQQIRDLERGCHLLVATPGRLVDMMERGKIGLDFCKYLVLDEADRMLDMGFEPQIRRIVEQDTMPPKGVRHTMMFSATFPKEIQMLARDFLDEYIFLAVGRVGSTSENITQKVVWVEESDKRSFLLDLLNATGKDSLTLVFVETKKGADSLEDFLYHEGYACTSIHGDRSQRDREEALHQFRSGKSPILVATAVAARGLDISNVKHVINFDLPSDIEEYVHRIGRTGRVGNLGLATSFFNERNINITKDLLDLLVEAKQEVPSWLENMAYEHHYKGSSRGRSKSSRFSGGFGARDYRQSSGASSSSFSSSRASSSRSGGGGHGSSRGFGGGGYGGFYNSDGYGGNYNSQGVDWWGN

Test system in one series: not given
Test: not given
Details: not given
Consider `COc1cccc(/C=C2\SC(=S)N(CCC(=O)Nc3ccccc3O)C2=O)c1` [Compound 35e, 3-((Z)-5-(3-Methoxybenzylidene)-4-oxo-2-thioxothiazolidin-3-yl)-N-(2-hydroxyphenyl) propanamide], for which the melting point fell in the range of 200 to 202 °C. Take `COC(CN1C(=O)/C(=C/c2cccc(Br)c2)SC1=S)OC` [Compound 3d, (Z)-5-(3-bromobenzylidene)-3-(2,2-dimethoxyethyl)-2-thioxothiazolidin-4-one]: the melting point was in the range of 124 to 126 °C. `O=C1Nc2ccccc2/C1=N/Nc1nc(NCc2cccc(Cl)c2)nc(N2CCOCC2)n1` [Compound 14f, (Z)-3-(2-(4-(3-Chlorobenzylamino)-6-morpholino-1,3,5-triazin-2-yl)hydrazono)indolin-2-one] gave a melting point of 144 to 144.5 °C. With `COc1cccc(/C=C2\SC(=S)N(CCc3ccccc3)C2=O)c1` [Compound 3f, (Z)-5-(3-methoxybenzylidene)-3-phenethyl-2-thioxothiazolidin-4-one], the melting point was in the range of 122 to 125 °C. `O=C(CCN1C(=O)/C(=C/c2cccc(Br)c2)SC1=S)Nc1ccccc1[N+](=O)[O-]` [Compound 35g, 3-((Z)-5-(3-Bromobenzylidene)-4-oxo-2-thioxothiazolidin-3-yl)-N-(2-nitrophenyl)propanamide] returned a melting point of 204 to 206 °C. `C#CN1C(=O)/C(=C/c2cccc(Br)c2)SC1=S` [Compound 3c, (Z)-5-(3-bromobenzylidene)-3-ethynyl-2-thioxothiazolidin-4-one]: the melting point is 159 to 161 °C. For `Fc1ccc(Nc2nc(N/N=C/c3cccc4ccccc34)nc(N3CCOCC3)n2)cc1` [Compound 11a, (E)-N-(4-fluorophenyl)-4-morpholino-6-(2-(naphthalen-1-ylmethylene)hydrazinyl)-1,3,5-triazin-2-amine], the melting point is 220 to 220.4 °C.

The compound `CCCCN1C(=O)/C(=C/c2cccc(Br)c2)SC1=S` [Compound 3e, (Z)-5-(3-bromobenzylidene)-3-butyl-2-thioxothiazolidin-4-one] gave a melting point of 113 to 115 °C. Regarding `Fc1ccc(Nc2nc(N/N=C/c3c(F)cccc3F)nc(N3CCOCC3)n2)cc1` [Compound 11c, (E)-4-(2-(2,6-difluorobenzylidene)hydrazinyl)-N-(4-fluorophenyl)-6-morpholino-1,3,5-triazin-2-amine], the melting point fell in the range of 155.5 to 156 °C. As for `O=C1/C(=C/c2cccc(Br)c2)SC(=S)N1Cc1ccccc1` [Compound 3b, (Z)-5-(3-bromobenzylidene)-3-benzyl-2-thioxothiazolidin-4-one], the melting point lay within 112 to 113 °C.

The compound `O=C1/C(=C/c2cccc(Br)c2)SC(=S)N1CCc1ccccc1` [Compound 3a, (Z)-5-(3-bromobenzylidene)-3-phenethyl-2-thioxothiazolidin-4-one] came in with a melting point of 102 to 104 °C.

Consider `Fc1ccc(Nc2nc(N/N=C/c3ccc4ccccc4c3)nc(N3CCOCC3)n2)cc1` [Compound 11b, (E)-N-(4-fluorophenyl)-4-morpholino-6-(2-(naphthalen-2-ylmethylene)hydrazinyl)-1,3,5-triazin-2-amine], for which the melting point is 225 to 226 °C. `O=C1/C(=C/c2ccc3ccccc3c2)SC(=S)N1CCc1ccccc1` [Compound 3i, (Z)-5-((naphthalen-3-yl)methylene)-3-phenethyl-2-thioxothiazolidin-4-one]: the melting point is 174 to 176 °C. Regarding `O=C1/C(=C/c2cccnc2)SC(=S)N1CCc1ccccc1` [Compound 3h, (Z)-3-phenethyl-5-((pyridin-3-yl)methylene)-2-thioxothiazolidin-4-one], the melting point fell in the range of 138 to 140 °C. `O=C1/C(=C/c2ccco2)SC(=S)N1CCc1ccccc1` [Compound 3g, (Z)-5-((furan-2-yl)methylene)-3-phenethyl-2-thioxothiazolidin-4-one] yielded a melting point of 150 to 152 °C.

A further series concerns the target T1, human DDX3 (ATPase activity) (Homo sapiens, UniProt O00571).
T1 construct: made in house; host or cells: E. coli
The series can be described thus: Human DDX3 ATPase activity assay (luciferase-based luminescence). It is filed as biochemical. The following applies: DDX3 ATPase activity; read-out: Ki (μM), apparent equilibrium dissociation constant for the inhibitor to the target enzyme DDX3. As for the experimental part: ATPase activity was tested with a luciferase-based luminescence assay (Easylite-Kinase, Perkin Elmer) on 96 wells microtiter plates. Briefly, recombinant purified human DDX3 (50-100 ng) was incubated in a 15 μL total reaction volume with reaction buffer (25 mM TrisHCl pH 7.5, 5 mM MgCl2), in the presence of increasing amounts of ATP and/or different combinations of ATP and the inhibitor to be tested. Reference curves in the absence of inhibitor (giving the 100% of enzymatic activity) and in the absence of enzyme (giving the baseline), were also included in each experiment. Reading was performed with a Microbeta Trilux (Perkin Elmer) luminometer, according to the manufacturer's protocol.
ATPase reactions were performed as described, in the presence of increasing amounts of inhibitor and variable ATP concentrations. Variations of the initial velocities of the reaction as a function of ATP concentrations in the absence or presence of 4 were analyzed with the equation: […]
Variation of the % inhibition as a function of compound FE15 at different ATP concentrations were fitted to the equation for cooperative binding: […]
where Vmax is the apparent maximal rate of the reaction in the absence of the inhibitor, [I] is the variable inhibitor concentration, n is the cooperativity index and Ki(app) is the apparent inhibition constant. Comparatively, fitting was done with the same Eq. (2) where n was kept fixed at the value of 1 (non-cooperativity hypothesis). F test was used to compare the two fittings and p value was calculated.
Human recombinant DDX3 was cloned, expressed and purified as described (Franca et al. Proteins 2007, 67, 1128-37).
The anti-DDX3 activity of the compounds of the invention was evaluated by in vitro ATPase activity assay using the recombinant human DDX3 protein produced in E. coli. The potency of inhibition (Ki) for each molecule was calculated, representing the concentration of the inhibitor able to reduce the DDX3 ATPase activity by 50%
In the case of `COc1ccc(/C=C2\SC(=S)N(CCC(=O)Nc3ccccc3C(=O)O)C2=O)cc1` [FE-77], the Ki is 2 µM.

Consider `O=C(Oc1cccc(/C=N/Nc2nc(Nc3ccccc3)nc(N3CCOCC3)n2)c1)c1ccco1` [FE-56U], for which the Ki came to 6.3 µM. Regarding `COc1cc(/C=C2\SC(=S)N(CCC(=O)N3CCCc4ccccc43)C2=O)cc(OC)c1OC` [FE-69], the Ki is 0.9 µM. Same read-out and setting: the result for `Cc1ccc(Nc2nc(N/N=C3/C(=O)Nc4ccccc43)nc(N3CCOCC3)n2)cc1Cl` [FE-56AH] reads 3.2 µM; that for `OCCc1cc(Nc2ccc(F)cc2)nc(N/N=C/c2ccccc2O)n1` [Compound 22, 2-((2-(4-(4-Fluorophenylamino)-6-(2-hydroxyethyl)pyrimidin-2-yl)hydrazono)methyl)phenol], 9 µM; that for `COc1cccc(/C=C2\SC(=S)N(CCC(=O)Nc3ccccc3O)C2=O)c1` [Compound 35e, 3-((Z)-5-(3-Methoxybenzylidene)-4-oxo-2-thioxothiazolidin-3-yl)-N-(2-hydroxyphenyl) propanamide], 10 µM. On to `O=C1Nc2ccccc2/C1=N/Nc1nc(NCc2cccc(Cl)c2)nc(N2CCOCC2)n1` [Compound 14f, (Z)-3-(2-(4-(3-Chlorobenzylamino)-6-morpholino-1,3,5-triazin-2-yl)hydrazono)indolin-2-one], for which the Ki amounted to 2.9 µM. `O=C(NCCN1C(=O)/C(=C/c2cccc(F)c2)SC1=S)c1ccccc1O` [Compound 3k, N-(2-((Z)-5-(3-Fluorobenzylidene)-4-oxo-2-thioxothiazolidin-3-yl)ethyl)-2-hydroxy-benzamide]: the Ki stood at 4.3 µM. Take `Clc1ccc(/C=N/Nc2nc(Nc3ccccc3)nc(Nc3ccccc3)n2)cc1Cl` [FE-56O]: the Ki stood at 18 µM. Regarding `Oc1ccc(/C=N/Nc2nc(Nc3ccccc3)nc(Nc3ccccc3)n2)c(O)c1` [FE-56I], the Ki came out at 33 µM. In the case of `CC(=O)Nc1ccc(/C(C)=N/Nc2nc(NCc3ccccc3)nc(N3CCOCC3)n2)cc1` [FE-56AN], the Ki was found to be 0.5 µM. Turning to `O=C(CCN1C(=O)/C(=C/c2cccc(Br)c2)SC1=S)Nc1ccccc1[N+](=O)[O-]` [Compound 35g, 3-((Z)-5-(3-Bromobenzylidene)-4-oxo-2-thioxothiazolidin-3-yl)-N-(2-nitrophenyl)propanamide], the Ki was 8.7 µM. `Fc1ccc(Nc2nc(N/N=C/c3cccc4ccccc34)nc(N3CCOCC3)n2)cc1` [Compound 11a, (E)-N-(4-fluorophenyl)-4-morpholino-6-(2-(naphthalen-1-ylmethylene)hydrazinyl)-1,3,5-triazin-2-amine]: the Ki was 86 µM.

`Fc1ccc(Nc2nc(N/N=C/c3c(F)cccc3F)nc(N3CCOCC3)n2)cc1` [Compound 11c, (E)-4-(2-(2,6-difluorobenzylidene)hydrazinyl)-N-(4-fluorophenyl)-6-morpholino-1,3,5-triazin-2-amine]: the Ki came out at 2.6 µM. Turning to `O=C1Nc2ccccc2/C1=N\Nc1nc(Nc2cccc(Cl)c2)nc(N2CCOCC2)n1` [FE-56AD], the Ki worked out at 2 µM.

Consider `O=C(NCCN1C(=O)/C(=C/c2cccc(Br)c2)SC1=S)c1ccccc1O` [Compound 3j, N-(2-((Z)-5-(3-Bromobenzylidene)-4-oxo-2-thioxothiazolidin-3-yl)ethyl)-2-hydroxybenzamide], for which the Ki came to 4.2 µM. `COc1ccc(Nc2nc(NCc3ccco3)nc(N/N=C/c3ccc(-c4ccccc4[N+](=O)[O-])o3)n2)cc1` [FE-56Z]: the Ki was found to be 1.9 µM. As to `Clc1ccccc1-c1ccc(/C=N/Nc2nc(Nc3ccccc3)nc(N3CCOCC3)n2)o1` [FE-56AA], the Ki came to 3.2 µM. The same measure, in the same setting: the result for `Fc1ccc(Nc2nc(N/N=C/c3ccc4ccccc4c3)nc(N3CCOCC3)n2)cc1` [Compound 11b, (E)-N-(4-fluorophenyl)-4-morpholino-6-(2-(naphthalen-2-ylmethylene)hydrazinyl)-1,3,5-triazin-2-amine] reads 8.5 µM; that for `O=[N+]([O-])c1ccc(Cl)c(-c2ccc(/C=N/Nc3nc(Nc4ccc(F)cc4)nc(N4CCOCC4)n3)o2)c1` [FE-56V], 3.6 µM.

For the compound `O=C(CCN1C(=O)/C(=C/c2ccc3c(c2)OCO3)SC1=S)Nc1ccccc1C(=O)O` [FE-70], the Ki was determined as 0.4 µM. As for `O=C(CCN1C(=O)C/C(=C\c2cccc(Br)c2)C1=O)Nc1ccccc1O` [Compound 6b, 3-((E)-3-(3-bromobenzylidene)-2,5-dioxopyrrolidin-1-yl)-N-(2-hydroxyphenyl)propanamide], the Ki turned out to be 28 µM. Still for that read-out and setting: with `Cc1ccc(Nc2nc(N/N=C/c3ccccc3O)nc(N3CCOCC3)n2)cc1Cl` [FE-56AM] the figure was 1.6 µM; with `CC(=O)Nc1ccc(/C(C)=N/Nc2nc(Nc3ccccc3)nc(N3CCOCC3)n2)cc1` [FE-56AI], 2.2 µM; with `COc1cc(/C=C2\SC(=S)N(CCC(=O)Nc3ccccc3O)C2=O)cc(OC)c1OC` [FE-74], 0.1 µM.

Values taken from patent US20120202814A1, “COMPOUNDS WITH DDX3 INHIBITORY ACTIVITY AND USES THEREOF” (UNIVERSITÀ DEGLI STUDI DI SIENA, priority 2009, published 2012).
